ChEMBL document CHEMBL1201862, “PubChem BioAssay data set” (2004)
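Exposure lasted 48 hours, with cells grown in 96-well plates and compounds tested at five concentrations. GI50 marks 50% less growth.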 Calls of active or inactive are those of the source. Cut-off read from the data, not from the text of the source: active = GI50 up to about 1.1 µM and inactive = higher.

Tests used:
Assay in all cases: NCI anticancer screen, dose series, 48 h
[1] = test system: HCT-15
[2] = test system: KM12
[3] = test system: EKVX
[4] = test system: MOLT-4
[5] = test system: UO-31
[6] = test system: SW-620
[7] = test system: OVCAR-3
[8] = test system: DU-145
[9] = test system: HCC 2998
[10] = test system: A498
[11] = test system: LOX IMVI
[12] = test system: NCI-H460
[13] = test system: OVCAR-5
[14] = test system: M14
[15] = test system: SNB-75
[16] = test system: NCI-H23
[17] = test system: RPMI-8226
[18] = test system: 786-0
[19] = test system: MDA-MB-435
[20] = test system: SK-MEL-5
[21] = test system: TK-10
[22] = test system: HT-29
[23] = test system: SK-OV-3
[24] = test system: CCRF-CEM
[25] = test system: MCF7
[26] = test system: OVCAR-8
[27] = test system: IGROV-1
[28] = test system: MDA-N
[29] = test system: HCT-116
[30] = test system: NCI-H226
[31] = test system: SF-539
[32] = test system: SN12C
[33] = test system: HOP-62
[34] = test system: UACC-257
[35] = test system: A549
[36] = test system: MDA-MB-231
[37] = test system: COLO 205
[38] = test system: RXF 393
[39] = test system: SF-268
[40] = test system: U-251
[41] = test system: Hs-578T
[42] = test system: SNB-19
[43] = test system: UACC-62
[44] = test system: OVCAR-4
[45] = test system: Malme-3M
[46] = test system: SF-295
[47] = test system: CAKI-1
[48] = test system: K562
[49] = test system: SR
[50] = test system: BT-549
[51] = test system: ACHN
[52] = test system: PC-3
[53] = test system: SK-MEL-28
[54] = test system: HL-60
[55] = test system: NCI/ADR-RES
[56] = test system: NCI-H522
[57] = test system: T47D

Clc1c(C(Cl)(Cl)Cl)nsc1N1CCCCC1
GI50 [1]: 26.5 µM | GI50 [2]: 20.7 µM (inactive) | GI50 [3]: 29.9 µM (inactive) | GI50 [4]: 15.2 µM (inactive) | GI50 [5]: 11.4 µM (inactive) | GI50 [6]: 32.4 µM (inactive) | GI50 [7]: 20.8 µM (inactive) | GI50 [8]: 28.4 µM (inactive) | GI50 [9]: 22.2 µM (inactive) | GI50 [10]: 20 µM (inactive) | GI50 [11]: 16.2 µM (inactive) | GI50 [12]: 33.6 µM (inactive) | GI50 [13]: 33.7 µM (inactive) | GI50 [14]: 21 µM (inactive) | GI50 [15]: 29 µM (inactive) | GI50 [16]: 14 µM (inactive) | GI50 [17]: 12.6 µM (inactive) | GI50 [18]: 17.9 µM (inactive) | GI50 [19]: 20.9 µM (inactive) | GI50 [20]: 16 µM (inactive) | GI50 [21]: 31.6 µM (inactive) | GI50 [22]: 16 µM (inactive) | GI50 [23]: 27.9 µM (inactive) | GI50 [24]: 16.5 µM (inactive) | GI50 [25]: 26.1 µM (inactive) | GI50 [26]: 27.4 µM (inactive) | GI50 [27]: 36 µM (inactive) | GI50 [28]: 31 µM (inactive) | GI50 [29]: 24.3 µM (inactive) | GI50 [30]: 15.1 µM (inactive) | GI50 [31]: 25.3 µM (inactive) | GI50 [32]: 28 µM (inactive) | GI50 [33]: 23 µM (inactive) | GI50 [34]: 23.3 µM (inactive) | GI50 [35]: 33.9 µM (inactive) | GI50 [36]: 23.8 µM (inactive) | GI50 [37]: 16.5 µM (inactive) | GI50 [38]: 16.8 µM (inactive) | GI50 [39]: 34 µM (inactive) | GI50 [40]: 23.5 µM (inactive) | GI50 [41]: 31.3 µM (inactive) | GI50 [42]: 20.7 µM (inactive) | GI50 [43]: 22 µM (inactive) | GI50 [44]: 25.6 µM (inactive) | GI50 [45]: 13.5 µM (inactive) | GI50 [46]: 22.3 µM (inactive) | GI50 [47]: 19.4 µM (inactive) | GI50 [48]: 19.1 µM (inactive) | GI50 [49]: 16.1 µM (inactive) | GI50 [50]: 18.3 µM (inactive) | GI50 [51]: 29.8 µM (inactive) | GI50 [52]: 31 µM (inactive) | GI50 [53]: 33 µM (inactive) | GI50 [54]: 16.6 µM (inactive)

CC(C)(C)c1ccc(O)c(C(O)c2ccncc2)c1 (configuration not stated)
GI50 [1]: 52.4 µM | GI50 [2]: > 100 µM (inactive) | GI50 [3]: 44.6 µM (inactive) | GI50 [4]: 76.4 µM (inactive) | GI50 [5]: > 100 µM (inactive) | GI50 [6]: > 100 µM (inactive) | GI50 [7]: > 100 µM (inactive) | GI50 [8]: > 100 µM (inactive) | GI50 [9]: 39.7 µM (inactive) | GI50 [55]: 53 µM (inactive) | GI50 [12]: > 100 µM (inactive) | GI50 [13]: 70.8 µM (inactive) | GI50 [15]: 68.7 µM (inactive) | GI50 [56]: > 100 µM (inactive) | GI50 [16]: 70.8 µM (inactive) | GI50 [18]: > 100 µM (inactive) | GI50 [20]: 24.1 µM (inactive) | GI50 [22]: > 100 µM (inactive) | GI50 [24]: > 100 µM (inactive) | GI50 [57]: 16.9 µM (inactive) | GI50 [26]: > 100 µM (inactive) | GI50 [27]: > 100 µM (inactive) | GI50 [29]: > 100 µM (inactive) | GI50 [30]: 72.1 µM (inactive) | GI50 [31]: > 100 µM (inactive) | GI50 [33]: > 100 µM (inactive) | GI50 [35]: 83.2 µM (inactive) | GI50 [36]: 62.8 µM (inactive) | GI50 [37]: > 100 µM (inactive) | GI50 [38]: 45.4 µM (inactive) | GI50 [39]: > 100 µM (inactive) | GI50 [41]: 37.7 µM (inactive) | GI50 [45]: 62.7 µM (inactive) | GI50 [47]: > 100 µM (inactive) | GI50 [48]: 61.4 µM (inactive) | GI50 [50]: > 100 µM (inactive) | GI50 [51]: 52.4 µM (inactive) | GI50 [53]: > 100 µM (inactive)
